The values that follow come from patent publication US20100035297A1, “METHODS AND COMPOSITIONS FOR VASCULOGENIC POTENTIAL DETERMINATION” (INDIANA UNIVERSITY RESEARCH AND TECHNOLOGY CORPORATION, priority 2008, published 2010).

What all share (format): cell-based, human
The subject of experiment [1] is EC+fibroblast co-culture. Kind of experiment: VNF by ECs co-cultured on fibroblast (NHDF) monolayer. To be noted: growth factor 10 ng/ml, 6 days; control 0.54±0.1. The protocol: (§1) Co-culture of ECs on ASC, NHDF and smooth muscle cell monolayers: Either ASCs, NHDFs, CASMCs, or AoSMCs were plated at a density of 60×10^3 cells/cm^2 in EBM-2/5% FBS media, three hours prior to overlaying them with 5×10^3 cells/cm^2 of CBD-ECs as previously described. The mixed cultures were incubated for six days with a routine media change at day 3. In experiments evaluating the effect of ASC conditioned media (ASC-CM) or added growth factors on vascular network formation, cells were cultured in EBM-2/5% FBS media that was either premixed with ASC-CM at a 1:1 ratio or supplemented with VEGF or HGF (10 ng/ml) as single growth factor controls. To generate ASC-CM, ASCs were grown to confluence in EGM-2mv in T75 flasks, followed by media replacement with EBM-2/5% FBS. After one day, 10 ml fresh EBM-2/5% FBS media was applied and removed after 72 hours conditioning. ASC-CM was collected, centrifuged at 300 g for five minutes, and supernatants frozen at 80° C. Cell number at the time of media collection was determined using hemocytometer.

Experiment [2] concerns EC+CASMC co-culture. Kind of experiment: VNF by ECs co-cultured on CASMC monolayer. To be noted: growth factor 10 ng/ml, 6 days; control 0.37±0.13. The protocol: as §1
In experiment [3] the test system is ASCs. Kind of experiment: hASC mitogenic response to individual growth factors. Particulars: factor added to basal medium, 10 pg to 10 ng, 4 days. On the procedure:
Evaluation of hASC Mitogenic Response to Individual Growth Factors: Freshly isolated ASCs were adhered on cell culture plastic for 2 days before harvesting attached cells with 0.05% trypsin/EDTA. Cells were seeded at 3×10^3 cells/cm^2 in 12-well plates and allowed to attach overnight in EBM-2/5% FBS medium, which was then replaced with EBM-2/5% FBS alone (control) or EBM-2/5% FBS supplemented with basic fibroblast growth factor (bFGF), epidermal growth factor (EGF), or platelet-derived growth factor (PDGF)-BB individually at final concentrations of 10 pg, 100 pg, 1 ng, or 10 ng each or the mixture of all of these, each at the specified concentration. Cells were cultured for 4 days, with a medium change after 48 hours, and then detached using 0.05% trypsin/EDTA, and viable cells were counted using a hemacytometer and trypan blue. Proliferation data are presented as the ratio of cells per well supplemented with growth factor to cells per well in control media.

The test system of experiment [4] is vascular network formation by EC on ASC monolayer. Kind of experiment: Vascular network formation (VNF) in EC-ASC co-culture. Particulars: 6 days. The protocol: Medium with the same supplements were exchange at day 3. At day 6, wells with the co-cultures were fixed with methanol, stained for human CD31 antigen; 5-9 pictures/well at 4× were taken under fluorescent microscope and were analyzed for total tube length and branch points.
Co-culture of EC and ASC: ASCs were plated on culture plastic at a density of 60×10^3 cells/cm^2 in EBM-2/5% FBS media. In most experiments, ASCs were allowed to attach to the plates for three hours and then ECs from the indicated sources were plated on the top of ASC monolayer at densities ranging from 625 to 10,000 cells/cm^2. Cells were cultured in EBM-2/5% FBS for six days with media change at day 3. In a separate set of experiments, ASCs at 60×10^3 cells/cm^2 and CBD-ECs at 5×10^3 cells/cm^2 were premixed in EBM-2/5% FBS prior to plating.
In experiments assessing the role of various factors on EC-ASC interactions, co-cultures were incubated for 6 days in EBM-2/5% FBS media supplemented with: (1) neutralizing IgGs to: VEGF (RnD Systems, 2 μg/ml), HGF (RnD Systems, 2 μg/ml) or corresponding control mouse and goat IgGs (RnD Systems); (2) 10 μM GM6001 (Millipore, Billerica, Mass.), an inhibitor of MMP activity with a wide range of activity; (3) 50 μM AG1296 (Alexis, San Diego, Calif.), an inhibitor of PDGF receptor β activity; (4) and DMSO, which was used to dilute GM6001 and AG1296, as a negative control. Test cultures were exposed to the varying media conditions for six days.
as §1

For the molecule “HGF: hepatocyte growth factor, single growth factor supplement”, the total tube length in experiment [1] is 1.0±0.02 mm/mm^2; in experiment [2], 0.74±0.21 mm/mm^2. On to “EGF: epidermal growth factor (NSDSECPLSHDGYCLHDGVCMYIEALDKYACNCVVGYIGERCQYRDLKWWELR; UniProt P01133 971-1023, looked up)”, for which, in experiment [3], the “effect on ASC proliferation” value was “strong mitogenic effects”. The same measure, in the same setting: next, bFGF: basic fibroblast growth factor: “strong mitogenic effects”. With `CNC(=O)[C@H](Cc1c[nH]c2ccccc12)NC(=O)[C@@H](CC(=O)NO)CC(C)C` [GM6001], the total tubes length in experiment [4] (10 μM, DMSO control 4.24±0.31) is recorded as 2.59±0.05 mm/mm^2. Also, the “degree of network branching” value in experiment [4] (10 μM, DMSO control 5.86±0.79) came out at 2.45±0.17 per mm^2. Regarding VEGF, the total tube length in experiment [1] stood at 3.2±0.4 mm/mm^2; in experiment [2] it was 0.9±0.18 mm/mm^2. Moreover, the “increase of total tube length” value in experiment [4] (EC-ASC co-culture, growth factor 10 ng/ml, vs control media) is recorded as 76%.

In experiment [4] (50 μM, DMSO control 5.29±0.31), `COc1cc2ncc(-c3ccccc3)nc2cc1OC` [AG1296] displayed a total tube length of 1.07±0.14 mm/mm^2. Besides, the “degree of network branching” value in experiment [4] (50 μM, DMSO control 5.88±0.67) worked out at 0.26±0.06 branches/mm^2.
